From ChEMBL document CHEMBL4364276, “Discovery of 4-phenyl-2H-benzo[b][1,4]oxazin-3(4H)-one derivatives as potent and orally active PI3K/mTOR dual inhibitors” (Eur J Med Chem, 2019)

What was measured:
[1] = biological target: Tyrosine-protein kinase Lck (Homo sapiens) (UniProt P06239); test: Inhibition of human LCK at 100 nM using poly[Glu:Tyr] (4:1) as substrate by [gamma-33P]-ATP assay
[2] = biological target: Casein kinase I isoform alpha-like (Homo sapiens) (UniProt Q8N752); test: Inhibition of human CK1a1L at 100 nM using KRRRAL[pS]VASLPGL as substrate by [gamma-33P]-ATP assay
[3] = biological target: Mitogen-activated protein kinase kinase kinase 20 (Homo sapiens) (UniProt Q9NYL2); test: Inhibition of human ZAK at 100 nM using MBP as substrate by [gamma-33P]-ATP assay
[4] = biological target: Epithelial discoidin domain-containing receptor 1 (Homo sapiens) (UniProt Q08345); test: Inhibition of human DDR1 at 100 nM using KKSRGDYMTMQIG as substrate by [gamma-33P]-ATP assay
[5] = biological target: Cyclin-C/Cyclin-dependent kinase 19 (Homo sapiens) (UniProt Q9BWU1+P24863); test: Inhibition of human CDK19/cyclin-C at 100 nM using RB protein as substrate by [gamma-33P]-ATP assay; format: protein-complex assay
[6] = biological target: Serine/threonine-protein kinase Chk2 (Homo sapiens) (UniProt O96017); test: Inhibition of human CHK2 at 100 nM using KKKVSRSGLYRSPSMPENLNRPR as substrate by [gamma-33P]-ATP assay
[7] = biological target: Serine/threonine-protein kinase Nek5 (Homo sapiens) (UniProt Q6P3R8); test: Inhibition of human NEK5 at 100 nM using MBP as substrate by [gamma-33P]-ATP assay
[8] = biological target: CDK6/cyclin D3 (Homo sapiens) (UniProt P30281+Q00534); test: Inhibition of human CDK6/cyclin-D3 at 100 nM using RB protein as substrate by [gamma-33P]-ATP assay; format: protein-complex assay
[9] = biological target: Cyclin-dependent kinase 5/CDK5 activator 1 (Homo sapiens) (UniProt Q00535+Q15078); test: Inhibition of human CDK5/p35 at 100 nM using histone H1 as substrate by [gamma-33P]-ATP assay; format: protein-complex assay
[10] = biological target: Misshapen-like kinase 1 (Homo sapiens) (UniProt Q8N4C8); test: Inhibition of human MINK1 at 100 nM using MBP as substrate by [gamma-33P]-ATP assay
[11] = biological target: Serine/threonine-protein kinase TBK1 (Homo sapiens) (UniProt Q9UHD2); test: Inhibition of human TBK1 at 100 nM using KRRRAL[pS]VASLPGL as substrate by [gamma-33P]-ATP assay
[12] = biological target: Dual specificity mitogen-activated protein kinase kinase 3 (Homo sapiens) (UniProt P46734); test: Inhibition of human MEK3 at 100 nM using p38alpha as substrate by [gamma-33P]-ATP assay
[13] = biological target: Serine/threonine-protein kinase D2 (Homo sapiens) (UniProt Q9BZL6); test: Inhibition of human PKD2 at 100 nM using KKLNRTLSVA as substrate by [gamma-33P]-ATP assay
[14] = biological target: Rhodopsin kinase GRK1 (Homo sapiens) (UniProt Q15835); test: Inhibition of human GRK1 at 100 nM using casein as substrate by [gamma-33P]-ATP assay
[15] = biological target: CDK3/Cyclin-E2 (Homo sapiens) (UniProt O96020+Q00526); test: Inhibition of human CDK3/cyclin-E2 at 100 nM using histone H1 as substrate by [gamma-33P]-ATP assay; format: protein-complex assay
[16] = biological target: Serine/threonine-protein kinase D1 (Homo sapiens) (UniProt Q15139); test: Inhibition of human PKCmu at 100 nM using KKLNRTLSVA as substrate by [gamma-33P]-ATP assay
[17] = biological target: Casein kinase I isoform gamma-1 (Homo sapiens) (UniProt Q9HCP0); test: Inhibition of human CK1gamma1 at 100 nM using KRRRAL[pS]VASLPGL as substrate by [gamma-33P]-ATP assay
[18] = biological target: Mitogen-activated protein kinase kinase kinase 3 (Homo sapiens) (UniProt Q99759); test: Inhibition of human MEKK3 at 100 nM using MBP as substrate by [gamma-33P]-ATP assay
[19] = biological target: Serine/threonine-protein kinase tousled-like 1 (Homo sapiens) (UniProt Q9UKI8); test: Inhibition of human TLK1 at 100 nM using Histone H3 as substrate by [gamma-33P]-ATP assay
[20] = biological target: Dual specificity tyrosine-phosphorylation-regulated kinase 2 (Homo sapiens) (UniProt Q92630); test: Inhibition of human DYRK2 at 100 nM using RRRFRPASPLRGPPK as substrate by [gamma-33P]-ATP assay
[21] = biological target: Serine/threonine-protein kinase Nek7 (Homo sapiens) (UniProt Q8TDX7); test: Inhibition of human NEK7 at 100 nM using casein as substrate by [gamma-33P]-ATP assay
[22] = biological target: Tyrosine-protein kinase Fyn (Homo sapiens) (UniProt P06241); test: Inhibition of human FYN at 100 nM using poly[Glu:Tyr] (4:1) as substrate by [gamma-33P]-ATP assay
[23] = biological target: Myosin-IIIb (Homo sapiens) (UniProt Q8WXR4); test: Inhibition of human MYO3B at 100 nM using MBP as substrate by [gamma-33P]-ATP assay
[24] = biological target: Dual specificity testis-specific protein kinase 2 (Homo sapiens) (UniProt Q96S53); test: Inhibition of human TESK2 at 100 nM using cofilin as substrate by [gamma-33P]-ATP assay
[25] = biological target: Platelet-derived growth factor receptor beta (Homo sapiens) (UniProt P09619); test: Inhibition of human PDGFRbeta at 100 nM using poly[Glu:Tyr] (4:1) as substrate by [gamma-33P]-ATP assay
[26] = biological target: Serine/threonine-protein kinase 16 (Homo sapiens) (UniProt O75716); test: Inhibition of human STK16 at 100 nM using MBP as substrate by [gamma-33P]-ATP assay
[27] = biological target: Ephrin type-A receptor 6 (Homo sapiens) (UniProt Q9UF33); test: Inhibition of human EPHA6 at 100 nM using poly[Glu:Tyr] (4:1) as substrate by [gamma-33P]-ATP assay
[28] = biological target: CDK2/Cyclin O (Homo sapiens) (UniProt P24941+P22674); test: Inhibition of human CDK2/cyclin-O at 100 nM using histone H1 as substrate by [gamma-33P]-ATP assay; format: protein-complex assay
[29] = biological target: Serine/threonine-protein kinase 32B (Homo sapiens) (UniProt Q9NY57); test: Inhibition of human STK32B at 100 nM using MBP as substrate by [gamma-33P]-ATP assay
[30] = biological target: Serine/threonine-protein kinase Nek4 (Homo sapiens) (UniProt P51957); test: Inhibition of human NEK4 at 100 nM using MBP as substrate by [gamma-33P]-ATP assay

Sequence of Serine/threonine-protein kinase D2 (Homo sapiens) (Q9BZL6 whole entry): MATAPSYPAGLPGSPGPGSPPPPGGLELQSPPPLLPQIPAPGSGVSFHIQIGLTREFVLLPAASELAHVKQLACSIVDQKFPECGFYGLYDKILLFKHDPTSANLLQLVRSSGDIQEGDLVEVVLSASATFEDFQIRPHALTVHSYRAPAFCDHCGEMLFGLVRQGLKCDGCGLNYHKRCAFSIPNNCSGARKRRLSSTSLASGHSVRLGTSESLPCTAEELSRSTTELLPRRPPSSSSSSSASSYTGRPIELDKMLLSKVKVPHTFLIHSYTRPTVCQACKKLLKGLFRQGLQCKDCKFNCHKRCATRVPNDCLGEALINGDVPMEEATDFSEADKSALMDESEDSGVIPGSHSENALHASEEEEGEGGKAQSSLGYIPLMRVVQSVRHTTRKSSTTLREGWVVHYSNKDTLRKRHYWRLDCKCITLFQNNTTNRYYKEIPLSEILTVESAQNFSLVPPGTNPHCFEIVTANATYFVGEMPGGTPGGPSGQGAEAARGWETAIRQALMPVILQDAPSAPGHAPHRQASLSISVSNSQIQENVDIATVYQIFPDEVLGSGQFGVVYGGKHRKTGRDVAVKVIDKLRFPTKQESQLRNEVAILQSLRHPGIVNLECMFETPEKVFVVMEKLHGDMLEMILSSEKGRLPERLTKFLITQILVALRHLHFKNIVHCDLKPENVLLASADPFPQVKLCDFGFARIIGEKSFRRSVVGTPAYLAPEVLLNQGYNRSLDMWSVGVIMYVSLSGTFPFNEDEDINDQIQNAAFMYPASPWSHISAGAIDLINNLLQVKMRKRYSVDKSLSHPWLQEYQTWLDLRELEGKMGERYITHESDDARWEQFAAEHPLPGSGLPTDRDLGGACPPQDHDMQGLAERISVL
Sequence of Tyrosine-protein kinase Lck (Homo sapiens) (P06239 2-509 limits assumed): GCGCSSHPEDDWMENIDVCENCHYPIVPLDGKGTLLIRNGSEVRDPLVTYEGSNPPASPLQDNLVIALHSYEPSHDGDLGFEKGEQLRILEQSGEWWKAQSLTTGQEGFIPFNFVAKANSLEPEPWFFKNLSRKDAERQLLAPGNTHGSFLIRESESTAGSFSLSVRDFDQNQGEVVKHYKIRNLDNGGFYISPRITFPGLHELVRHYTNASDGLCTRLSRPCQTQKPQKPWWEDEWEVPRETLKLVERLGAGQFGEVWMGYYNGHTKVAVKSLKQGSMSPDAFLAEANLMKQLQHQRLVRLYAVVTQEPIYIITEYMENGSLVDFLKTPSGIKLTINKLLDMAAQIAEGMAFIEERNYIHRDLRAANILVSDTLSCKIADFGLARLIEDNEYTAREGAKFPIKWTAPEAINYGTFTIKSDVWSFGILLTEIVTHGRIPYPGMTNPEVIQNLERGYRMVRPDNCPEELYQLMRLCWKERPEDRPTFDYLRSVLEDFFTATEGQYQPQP
Sequence of Dual specificity testis-specific protein kinase 2 (Homo sapiens) (Q96S53 whole entry, looked up): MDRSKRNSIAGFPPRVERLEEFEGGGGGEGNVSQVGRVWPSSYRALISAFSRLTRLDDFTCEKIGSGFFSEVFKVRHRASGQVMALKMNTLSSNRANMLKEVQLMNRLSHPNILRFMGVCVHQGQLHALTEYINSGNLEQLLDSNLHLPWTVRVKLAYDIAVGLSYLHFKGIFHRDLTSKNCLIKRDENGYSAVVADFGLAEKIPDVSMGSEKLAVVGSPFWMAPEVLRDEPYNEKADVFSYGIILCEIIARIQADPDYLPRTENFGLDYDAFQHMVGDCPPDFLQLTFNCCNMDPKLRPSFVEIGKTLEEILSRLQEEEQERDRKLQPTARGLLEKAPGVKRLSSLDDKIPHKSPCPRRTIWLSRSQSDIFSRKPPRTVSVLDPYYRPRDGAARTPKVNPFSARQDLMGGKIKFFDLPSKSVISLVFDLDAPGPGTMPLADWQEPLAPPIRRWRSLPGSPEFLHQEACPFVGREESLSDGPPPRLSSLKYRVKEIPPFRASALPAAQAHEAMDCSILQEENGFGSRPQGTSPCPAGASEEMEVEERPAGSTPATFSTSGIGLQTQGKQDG
Sequence of CDK3/Cyclin-E2 (Homo sapiens) (O96020 whole entry, looked up): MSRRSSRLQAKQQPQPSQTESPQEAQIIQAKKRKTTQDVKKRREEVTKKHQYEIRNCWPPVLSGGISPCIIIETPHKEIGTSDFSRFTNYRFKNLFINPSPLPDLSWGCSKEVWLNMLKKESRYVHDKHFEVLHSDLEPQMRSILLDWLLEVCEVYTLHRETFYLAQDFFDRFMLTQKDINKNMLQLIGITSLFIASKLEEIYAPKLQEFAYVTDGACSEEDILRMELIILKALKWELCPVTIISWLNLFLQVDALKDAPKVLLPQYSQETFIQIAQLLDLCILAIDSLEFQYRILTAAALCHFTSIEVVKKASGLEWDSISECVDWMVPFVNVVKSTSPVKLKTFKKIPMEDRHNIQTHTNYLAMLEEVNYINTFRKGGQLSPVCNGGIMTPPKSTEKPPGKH
Sequence of CDK3/Cyclin-E2 (Homo sapiens) (Q00526 whole entry, looked up): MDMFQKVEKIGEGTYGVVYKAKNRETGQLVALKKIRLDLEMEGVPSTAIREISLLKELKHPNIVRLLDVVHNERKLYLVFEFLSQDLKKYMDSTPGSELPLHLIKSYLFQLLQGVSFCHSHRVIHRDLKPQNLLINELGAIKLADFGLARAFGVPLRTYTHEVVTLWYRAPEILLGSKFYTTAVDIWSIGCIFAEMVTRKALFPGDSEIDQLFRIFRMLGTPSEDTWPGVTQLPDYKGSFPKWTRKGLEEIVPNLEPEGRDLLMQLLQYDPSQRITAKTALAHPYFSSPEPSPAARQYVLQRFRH
Sequence of Epithelial discoidin domain-containing receptor 1 (Homo sapiens) (Q08345 whole entry, the tested form may be a part): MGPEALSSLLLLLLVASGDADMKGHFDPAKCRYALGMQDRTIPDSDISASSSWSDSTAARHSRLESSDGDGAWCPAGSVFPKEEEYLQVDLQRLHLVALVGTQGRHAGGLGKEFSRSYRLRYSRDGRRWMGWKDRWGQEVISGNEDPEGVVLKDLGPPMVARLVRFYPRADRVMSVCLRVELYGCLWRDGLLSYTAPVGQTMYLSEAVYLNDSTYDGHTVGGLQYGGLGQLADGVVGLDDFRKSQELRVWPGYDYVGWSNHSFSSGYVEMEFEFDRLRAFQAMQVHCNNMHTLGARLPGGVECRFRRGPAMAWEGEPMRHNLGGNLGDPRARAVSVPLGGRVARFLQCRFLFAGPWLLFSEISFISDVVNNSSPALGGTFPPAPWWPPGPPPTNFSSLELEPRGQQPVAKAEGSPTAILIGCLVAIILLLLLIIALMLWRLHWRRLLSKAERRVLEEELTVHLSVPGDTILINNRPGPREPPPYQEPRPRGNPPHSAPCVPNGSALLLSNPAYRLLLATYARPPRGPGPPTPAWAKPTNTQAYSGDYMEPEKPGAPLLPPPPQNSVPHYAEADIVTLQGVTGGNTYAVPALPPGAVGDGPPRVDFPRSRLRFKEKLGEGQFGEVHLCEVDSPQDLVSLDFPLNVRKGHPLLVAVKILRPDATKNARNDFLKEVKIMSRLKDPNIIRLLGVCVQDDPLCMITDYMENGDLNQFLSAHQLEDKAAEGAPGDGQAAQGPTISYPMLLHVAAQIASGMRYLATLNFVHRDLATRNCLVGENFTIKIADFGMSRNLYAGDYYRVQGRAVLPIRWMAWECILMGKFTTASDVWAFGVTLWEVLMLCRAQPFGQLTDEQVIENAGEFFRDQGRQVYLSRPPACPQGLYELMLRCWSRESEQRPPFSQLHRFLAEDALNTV
Sequence of Cyclin-dependent kinase 5/CDK5 activator 1 (Homo sapiens) (Q00535 whole entry): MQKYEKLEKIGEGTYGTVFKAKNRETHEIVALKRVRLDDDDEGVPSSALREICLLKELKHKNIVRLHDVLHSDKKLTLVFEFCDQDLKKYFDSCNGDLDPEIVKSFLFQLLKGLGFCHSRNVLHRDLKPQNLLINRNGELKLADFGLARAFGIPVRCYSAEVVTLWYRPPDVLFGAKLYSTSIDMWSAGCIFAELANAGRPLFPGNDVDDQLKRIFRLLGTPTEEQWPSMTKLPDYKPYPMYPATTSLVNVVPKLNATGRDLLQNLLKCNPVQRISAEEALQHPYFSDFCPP
Sequence of Cyclin-dependent kinase 5/CDK5 activator 1 (Homo sapiens) (Q15078 99-307 partner limits assumed): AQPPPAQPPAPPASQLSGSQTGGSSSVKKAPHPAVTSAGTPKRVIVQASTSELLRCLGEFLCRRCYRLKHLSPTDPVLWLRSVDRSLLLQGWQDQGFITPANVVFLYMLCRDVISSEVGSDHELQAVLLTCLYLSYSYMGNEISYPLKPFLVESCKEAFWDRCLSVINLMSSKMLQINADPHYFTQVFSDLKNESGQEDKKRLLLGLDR
Sequence of Mitogen-activated protein kinase kinase kinase 20 (Homo sapiens) (Q9NYL2 2-800 limits assumed): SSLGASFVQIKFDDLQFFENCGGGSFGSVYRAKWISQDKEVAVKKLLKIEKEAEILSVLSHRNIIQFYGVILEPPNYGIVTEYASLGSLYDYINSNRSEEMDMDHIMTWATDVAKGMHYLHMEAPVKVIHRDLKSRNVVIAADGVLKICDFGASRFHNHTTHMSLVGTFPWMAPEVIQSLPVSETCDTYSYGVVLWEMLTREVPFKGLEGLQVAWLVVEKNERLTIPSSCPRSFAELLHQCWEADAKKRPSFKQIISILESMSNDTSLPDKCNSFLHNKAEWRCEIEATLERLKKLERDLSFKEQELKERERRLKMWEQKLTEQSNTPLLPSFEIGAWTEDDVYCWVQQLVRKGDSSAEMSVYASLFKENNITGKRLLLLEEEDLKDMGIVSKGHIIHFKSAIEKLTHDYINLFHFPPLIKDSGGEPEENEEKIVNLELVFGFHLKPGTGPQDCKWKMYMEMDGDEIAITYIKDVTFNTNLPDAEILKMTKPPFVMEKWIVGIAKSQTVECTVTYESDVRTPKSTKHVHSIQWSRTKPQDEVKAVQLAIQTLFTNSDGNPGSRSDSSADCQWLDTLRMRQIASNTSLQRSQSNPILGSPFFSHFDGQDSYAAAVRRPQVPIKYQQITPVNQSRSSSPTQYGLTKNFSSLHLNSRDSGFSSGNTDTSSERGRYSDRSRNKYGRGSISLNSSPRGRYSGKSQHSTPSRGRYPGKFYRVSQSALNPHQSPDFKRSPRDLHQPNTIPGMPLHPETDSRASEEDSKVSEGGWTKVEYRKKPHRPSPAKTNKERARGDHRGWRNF

**Q.** With COc1ccc(N2C(=O)COc3ccc(-c4cnc(OC)c(NS(=O)(=O)c5ccc(F)cc5)c4)cc32)cc1 as the compound, how does the inhibition [1] read?
**A.** 16%

**Q.** What about the inhibition [2] of the same compound?
**A.** -6.28%

**Q.** What about the inhibition [3] of the same compound?
**A.** -6.81%

**Q.** And the inhibition [4]?
**A.** 2.59%

**Q.** What about the inhibition [5] of the same compound?
**A.** 4.5%

**Q.** And the inhibition [6]?
**A.** 6.04%

**Q.** And the inhibition [7]?
**A.** 1.15%

**Q.** And the inhibition [8]?
**A.** 3.81%

**Q.** What about the inhibition [9] of the same compound?
**A.** 8.65%

**Q.** And the inhibition [10]?
**A.** 9.96%

**Q.** What about the inhibition [11] of the same compound?
**A.** 5.37%

**Q.** What about the inhibition [12] of the same compound?
**A.** 1.4%

**Q.** And the inhibition [13]?
**A.** -3.61%

**Q.** And the inhibition [14]?
**A.** -9.8%

**Q.** And the inhibition [15]?
**A.** 4%

**Q.** And the inhibition [16]?
**A.** 25.9%

**Q.** And the inhibition [17]?
**A.** 6.26%

**Q.** What about the inhibition [18] of the same compound?
**A.** 2.85%

**Q.** And the inhibition [19]?
**A.** 2.5%

**Q.** What about the inhibition [20] of the same compound?
**A.** 3.05%

**Q.** And the inhibition [21]?
**A.** 4.12%

**Q.** And the inhibition [22]?
**A.** -0.86%

**Q.** What about the inhibition [23] of the same compound?
**A.** 8.36%

**Q.** And the inhibition [24]?
**A.** 0.47%

**Q.** What about the inhibition [25] of the same compound?
**A.** 0.28%

**Q.** What about the inhibition [26] of the same compound?
**A.** -2.3%

**Q.** What about the inhibition [27] of the same compound?
**A.** -9.63%

**Q.** What about the inhibition [28] of the same compound?
**A.** 0.23%

**Q.** And the inhibition [29]?
**A.** -3.89%

**Q.** And the inhibition [30]?
**A.** -6.56%
